Assay results reported in patent publication US20240090503A1, “FUNGICIDAL OXADIAZOLES AND THEIR MIXTURES” (FMC CORPORATION, priority 2020, published 2024).
Marks after values point to notes of the source that are not given here.

Tests used:
Format in all cases: in vivo
[1] = tested on: Phakopsora pachyrhizi (the causal agent of Asian soybean rust); test: Test A: preventive spray on soybean seedlings, Asian soybean rust, visual disease rating; conditions: soybean seedlings
Outline: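 Compound in acetone/water (50/50) with 250 ppm PEG400 sprayed to run-off on soybean seedlings; inoculated next day with Phakopsora pachyrhizi spores. Held 24 h at 22° C in saturated atmosphere, then 8 days in a 22° C growth chamber before visual rating as % disease control relative to controls.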

[2] = tested on: Zymoseptoria tritici (the causal agent of wheat leaf blotch); test: Test B: preventive spray on wheat seedlings, wheat leaf blotch, visual disease rating; conditions: test suspension 250 ppm; wheat seedlings
Outline: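 This is a preventive test: spray application preceded Zymoseptoria tritici spore inoculation by one day. Test suspensions were in acetone/water with 250 ppm PEG400 surfactant, at the listed ppm rate. After 48 h saturated humidity at 24° C and 17 days at 20° C, visual ratings scored control from 0 to 100%.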

[3] = tested on: Puccinia recondita f. sp. tritici (the causal agent of wheat leaf rust); test: Test C: preventive spray on wheat seedlings, wheat leaf rust, visual disease rating; conditions: wheat seedlings
Outline: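 Wheat seedlings sprayed to run-off with compound in acetone/water (50/50) with 250 ppm PEG400, then inoculated with spores the following day. After 24 h saturated humidity at 20° C. and 6 days in growth chamber at 20° C., disease rated visually as % control relative to untreated controls.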

[4] = test suspension 10 ppm, 100 = 100% disease control, 0 = no control

Structure (SMILES): O=C(NCC(F)(F)F)c1coc(Cc2ccc(-c3noc(C(F)(F)F)n3)cc2)c1 [compound 291]
- Test A disease control rating [1, 4]: 100%
- Test B disease control rating [2]: 13* %
- Test C disease control rating ([3]; test suspension 10 ppm): 97%

Structure (SMILES): COCCNC(=O)c1coc(Cc2ccc(-c3noc(C(F)(F)F)n3)cc2)c1 [compound 292]
- Test A disease control rating [1, 4]: 100%
- Test B disease control rating [2]: 96* %
- Test C disease control rating ([3]; test suspension 10 ppm): 85%

Structure (SMILES): O=C(NCCn1cccn1)c1coc(Cc2ccc(-c3noc(C(F)(F)F)n3)cc2)c1 [compound 293]
- Test A disease control rating [1, 4]: 100%
- Test B disease control rating [2]: 91* %
- Test C disease control rating ([3]; test suspension 10 ppm): 79%

Structure (SMILES): N#CCNC(=O)c1coc(Cc2ccc(-c3noc(C(F)(F)F)n3)cc2)c1 [compound 294]
- Test A disease control rating [1, 4]: 100%
- Test B disease control rating [2]: 50* %
- Test C disease control rating ([3]; test suspension 10 ppm): 79%

Structure (SMILES): Cc1nc(COc2ccc(-c3noc(C(F)(F)F)n3)cc2)cs1 [compound 298]
- Test A disease control rating [1, 4]: 50%
- Test B disease control rating [2]: 73* %
- Test C disease control rating ([3]; test suspension 10 ppm): 0%

Structure (SMILES): CCOC(=O)c1cnn(Cn2cc(-c3noc(C(F)(F)F)n3)cn2)c1 [compound 305]
- Test A disease control rating ([1]; test suspension 50 ppm): 44%
- Test B disease control rating [2]: 0* %
- Test C disease control rating ([3]; test suspension 50 ppm): 0%

Structure (SMILES): CN(C)C(=O)C1=NOC(Cn2cc(-c3noc(C(F)(F)F)n3)cn2)C1 (stereo not drawn) [compound 306]
- Test A disease control rating ([1]; test suspension 50 ppm): 0%
- Test B disease control rating [2]: 10* %
- Test C disease control rating ([3]; test suspension 50 ppm): 0%

Structure (SMILES): CCOC(=O)c1cnn(CCn2cc(-c3noc(C(F)(F)F)n3)cn2)c1 [compound 307]
- Test A disease control rating ([1]; test suspension 50 ppm): 0%
- Test B disease control rating [2]: 0* %
- Test C disease control rating ([3]; test suspension 50 ppm): 0%

Structure (SMILES): COC(=O)c1ccc(CCn2cc(-c3noc(C(F)(F)F)n3)cn2)cc1 [compound 310]
- Test A disease control rating ([1]; test suspension 50 ppm): 0%
- Test B disease control rating [2]: 0* %
- Test C disease control rating ([3]; test suspension 50 ppm): 0%

Structure (SMILES): COC(=O)c1ccc(Cn2cc(-c3noc(C(F)(F)F)n3)cn2)cc1 [compound 311]
- Test A disease control rating ([1]; test suspension 50 ppm): 0%
- Test B disease control rating [2]: 0* %
- Test C disease control rating ([3]; test suspension 50 ppm): 0%

Structure (SMILES): COC(=O)c1cc(COc2ccc(-c3noc(C(F)(F)F)n3)cc2)on1 [compound 312]
- Test A disease control rating [1, 4]: 0%
- Test B disease control rating [2]: 0* %
- Test C disease control rating ([3]; test suspension 10 ppm): 0%

Structure (SMILES): FC(F)(F)c1nc(-c2ccc(OCc3cn4ccccc4n3)cc2)no1 [compound 313]
- Test A disease control rating [1, 4]: 77%
- Test B disease control rating [2]: 14* %
- Test C disease control rating ([3]; test suspension 10 ppm): 0%

Structure (SMILES): CN(C)C(=O)c1cc(COc2ccc(-c3noc(C(F)(F)F)n3)cc2)on1 [compound 314]
- Test A disease control rating [1, 4]: 99%
- Test B disease control rating [2]: 86* %
- Test C disease control rating ([3]; test suspension 10 ppm): 0%

Structure (SMILES): CN(C)C(=O)c1coc(Cc2ccc(-c3noc(C(F)(F)F)n3)cc2)n1 [compound 315]
- Test A disease control rating [1, 4]: 100%
- Test B disease control rating [2]: 97* %
- Test C disease control rating ([3]; test suspension 10 ppm): 99%

Structure (SMILES): COC(=O)c1ccc(COc2ccc(-c3noc(C(F)(F)F)n3)cc2)s1 [compound 317]
- Test A disease control rating [1, 4]: 0%
- Test B disease control rating [2]: 54* %
- Test C disease control rating ([3]; test suspension 10 ppm): 0%

Structure (SMILES): FC(F)(F)c1nc(-c2ccc(OCc3ccon3)cc2)no1 [compound 318]
- Test A disease control rating [1, 4]: 0%
- Test B disease control rating [2]: 11* %
- Test C disease control rating ([3]; test suspension 10 ppm): 0%

Structure (SMILES): FC(F)(F)c1nc(-c2ccc(OCc3cn4cccnc4n3)cc2)no1 [compound 319]
- Test A disease control rating [1, 4]: 97%
- Test B disease control rating [2]: 33* %
- Test C disease control rating ([3]; test suspension 10 ppm): 0%

Structure (SMILES): FC(F)(F)c1nc(-c2ccc(OCc3nc4ncccc4o3)cc2)no1 [compound 320]
- Test A disease control rating [1, 4]: 97%
- Test B disease control rating [2]: 33* %
- Test C disease control rating ([3]; test suspension 10 ppm): 0%

Structure (SMILES): O=S1(=O)CCCCN1Cc1ccc(-c2noc(C(F)(F)F)n2)cc1 [compound 321]
- Test A disease control rating ([1]; test suspension 250 ppm): 100%
- Test B disease control rating [2]: 99* %
- Test C disease control rating ([3]; test suspension 250 ppm): 100%

Structure (SMILES): O=S1(=O)CCCN1Cc1ccc(-c2noc(C(F)(F)F)n2)cc1 [compound 322]
- Test A disease control rating ([1]; test suspension 250 ppm): 100%
- Test B disease control rating [2]: 95* %
- Test C disease control rating ([3]; test suspension 250 ppm): 100%

Structure (SMILES): O=S1(=O)CCCCN1Cc1ccc(-c2noc(C(F)(F)F)n2)s1 [compound 323]
- Test A disease control rating ([1]; test suspension 250 ppm): 100%
- Test B disease control rating [2]: 92* %
- Test C disease control rating ([3]; test suspension 250 ppm): 100%

Structure (SMILES): O=S1(=O)CCCN1Cc1ccc(-c2noc(C(F)(F)F)n2)s1 [compound 324]
- Test A disease control rating ([1]; test suspension 250 ppm): 100%
- Test B disease control rating [2]: 80* %
- Test C disease control rating ([3]; test suspension 250 ppm): 100%

Structure (SMILES): O=C1COCCN1Cc1ccc(-c2noc(C(F)(F)F)n2)s1 [compound 325]
- Test A disease control rating ([1]; test suspension 250 ppm): 100%
- Test B disease control rating [2]: 36* %
- Test C disease control rating ([3]; test suspension 250 ppm): 100%

Structure (SMILES): FC(F)(F)c1nc(-c2cnn(CCCn3cc(-c4noc(C(F)(F)F)n4)cn3)c2)no1 [compound 326]
- Test A disease control rating ([1]; test suspension 250 ppm): 84%
- Test B disease control rating [2]: 1* %
- Test C disease control rating ([3]; test suspension 250 ppm): 67%

Structure (SMILES): O=C(NCC1CC1)c1coc(Cc2ccc(-c3noc(C(F)(F)F)n3)cc2)n1 [compound 327]
- Test A disease control rating [1, 4]: 100%
- Test B disease control rating [2]: 94* %
- Test C disease control rating ([3]; test suspension 10 ppm): 100%

Structure (SMILES): O=C(NCC(F)(F)C(F)(F)F)c1coc(Cc2ccc(-c3noc(C(F)(F)F)n3)cc2)n1 [compound 328]
- Test A disease control rating [1, 4]: 100%
- Test B disease control rating [2]: 0* %
- Test C disease control rating ([3]; test suspension 10 ppm): 100%

Structure (SMILES): O=C(NC1CSC1)c1coc(Cc2ccc(-c3noc(C(F)(F)F)n3)cc2)n1 [compound 329]
- Test A disease control rating [1, 4]: 100%
- Test B disease control rating [2]: 98* %
- Test C disease control rating ([3]; test suspension 10 ppm): 98%

Structure (SMILES): CC(C)(NC(=O)c1coc(Cc2ccc(-c3noc(C(F)(F)F)n3)cc2)n1)C(F)(F)F [compound 331]
- Test A disease control rating [1, 4]: 99%
- Test B disease control rating [2]: 97* %
- Test C disease control rating ([3]; test suspension 10 ppm): 94%

Structure (SMILES): O=C(NC1CCOC1=O)c1coc(Cc2ccc(-c3noc(C(F)(F)F)n3)cc2)n1 (stereo not drawn) [compound 332]
- Test A disease control rating [1, 4]: 100%
- Test B disease control rating [2]: 99* %
- Test C disease control rating ([3]; test suspension 10 ppm): 99%

Structure (SMILES): C=CCOC(=O)c1coc(Cc2ccc(-c3noc(C(F)(F)F)n3)cc2)n1 [compound 334]
- Test A disease control rating [1, 4]: 99%
- Test B disease control rating [2]: 92* %
- Test C disease control rating ([3]; test suspension 10 ppm): 86%

Structure (SMILES): CC(C)COC(=O)c1coc(Cc2ccc(-c3noc(C(F)(F)F)n3)cc2)n1 [compound 335]
- Test A disease control rating [1, 4]: 100%
- Test B disease control rating [2]: 73* %
- Test C disease control rating ([3]; test suspension 10 ppm): 94%

Structure (SMILES): Cc1noc(C)c1COc1ccc(-c2noc(C(F)(F)F)n2)cc1 [compound 338]
- Test A disease control rating [1, 4]: 99%
- Test B disease control rating [2]: 10* %
- Test C disease control rating ([3]; test suspension 10 ppm): 0%

Structure (SMILES): O=C(NC1CC1)c1csc(Cc2ccc(-c3noc(C(F)(F)F)n3)cc2)n1 [compound 342]
- Test A disease control rating [1, 4]: 100%
- Test B disease control rating [2]: 99* %
- Test C disease control rating ([3]; test suspension 10 ppm): 100%

Structure (SMILES): NC(=O)c1csc(Cc2ccc(-c3noc(C(F)(F)F)n3)cc2)n1 [compound 343]
- Test A disease control rating [1, 4]: 100%
- Test B disease control rating [2]: 97* %
- Test C disease control rating ([3]; test suspension 10 ppm): 100%

Structure (SMILES): CCOC(=O)c1csc(Cc2ccc(-c3noc(C(F)(F)F)n3)cc2)n1 [compound 344]
- Test A disease control rating [1, 4]: 100%
- Test B disease control rating [2]: 96* %
- Test C disease control rating ([3]; test suspension 10 ppm): 93%

Structure (SMILES): O=C(O)c1csc(Cc2ccc(-c3noc(C(F)(F)F)n3)cc2)n1 [compound 345]
- Test A disease control rating [1, 4]: 96%
- Test B disease control rating [2]: 50* %
- Test C disease control rating ([3]; test suspension 10 ppm): 68%

Structure (SMILES): CCOC(=O)c1cnn(Cn2nc(-c3noc(C(F)(F)F)n3)ccc2=O)c1 [compound 346]
- Test A disease control rating [1, 4]: 0%
- Test B disease control rating [2]: 0* %
- Test C disease control rating ([3]; test suspension 10 ppm): 0%

Structure (SMILES): CCOC(=O)c1cnn(CCn2nc(-c3noc(C(F)(F)F)n3)ccc2=O)c1 [compound 347]
- Test A disease control rating [1, 4]: 0%
- Test B disease control rating [2]: 0* %
- Test C disease control rating ([3]; test suspension 10 ppm): 0%

Structure (SMILES): CCNC(=O)c1ccc(COc2ccc(-c3noc(C(F)(F)F)n3)cc2)s1 [compound 352]
- Test A disease control rating [1, 4]: 87%
- Test B disease control rating [2]: 0* %
- Test C disease control rating ([3]; test suspension 10 ppm): 68%

Structure (SMILES): COC(=O)c1ccc(COc2ccc(-c3noc(C(F)(F)F)n3)cc2)cc1 [compound 354]
- Test A disease control rating [1, 4]: 0%
- Test B disease control rating [2]: 20* %
- Test C disease control rating ([3]; test suspension 10 ppm): 0%

Structure (SMILES): FC(F)(F)c1nc(-c2ccc(OCc3nc4ccccc4o3)cc2)no1 [compound 355]
- Test A disease control rating [1, 4]: 0%
- Test B disease control rating [2]: 4* %
- Test C disease control rating ([3]; test suspension 10 ppm): 0%

Structure (SMILES): CN(C)N1C(=O)C(Cl)=C(Oc2ccc(-c3noc(C(F)(F)F)n3)cc2)C1=O [compound 356]
- Test A disease control rating ([1]; test suspension 250 ppm): 99%
- Test B disease control rating [2]: 96* %
- Test C disease control rating ([3]; test suspension 250 ppm): 94%

Structure (SMILES): CC(C)(C)NN1C(=O)C(Cl)=C(Oc2ccc(-c3noc(C(F)(F)F)n3)cc2)C1=O [compound 357]
- Test A disease control rating ([1]; test suspension 250 ppm): 98%
- Test B disease control rating [2]: 99* %
- Test C disease control rating ([3]; test suspension 250 ppm): 91%

Structure (SMILES): CCOC(=O)c1cnn(CCCn2nc(-c3noc(C(F)(F)F)n3)ccc2=O)c1 [compound 358]
- Test A disease control rating [1, 4]: 0%
- Test B disease control rating [2]: 0* %
- Test C disease control rating ([3]; test suspension 10 ppm): 0%

Structure (SMILES): N#Cc1cnn(CCCc2ccc(-c3noc(C(F)(F)F)n3)cc2)c1 [compound 359]
- Test A disease control rating [1, 4]: 100%
- Test B disease control rating [2]: 99* %
- Test C disease control rating ([3]; test suspension 10 ppm): 95%
